In one data set the test system is SUM149 cells. Kind of data set: Trypan blue viability assay. It is filed as cell-based, human. To be noted: for effect of Cu chelator on DSF-Cu-induced cell death: BCS 100 μM, TM 10 μM. As for the experimental part:
(§1) Cells were treated for 24 h in regular growth medium with Disulfiram (Sigma), CuSO4 (VWR), SOD mimetic (MnTnHex-2-PyP^5+), bathocuproine disulfonate (BCS, Sigma), and tetrathiomolybdate (TM, Sigma). Cell viability was determined by trypan blue exclusion as described previously (Aird et al., 2008) where % viability was calculated as live cells/total cells×100.

The subject of another data set is rSUM149 cells. Kind of data set: Trypan blue viability assay. It is filed as cell-based, human. To be noted: for effect of Cu chelator on DSF-Cu-induced cell death: BCS 100 μM, TM 10 μM. Here is the method: as §1
The conditions of data set [1]: accepted daily dosing of 250-500 mg, human plasma; cited from earlier work.
The subject of another data set is IBC cells. Kind of data set: Trypan blue viability assay, IBC cell lines overall. Type of data set: cell-based. Here is the method: as §1
The subject of data set [2] is ctr1/ctr3Δ mutant MPY17 S. cerevisiae cells. The experiment in a line: Complementation of S. cerevisiae Cu+-transport mutants. It is filed as cell-based, Saccharomyces cerevisiae. To be noted: YPEG media, 30° C., 3 days, absorbance at 600 nm. Here is the method:
SEY6210 (wild type) (Robinson et al., 1988) and ctr1/ctr3Δ mutant MPY17 S. cerevisiae cells (Pena et al., 1998) were grown in YPEG media (3% ethanol, 3% glycerol, 1% yeast extract, 2% Bacto Peptone, 2% agar) with addition of 0-50 μM known Cu ionophore, zinc pyrithione (ZPT) (Reeder et al., 2011), or DSF. Cells were allowed to grow at 30° C. for 3 days; growth was assessed by measuring optical density at 600 nm on a Spectramax Plus 384 plate reader (Molecular Devices).

Data set [3] deals with BCM2 Xenograft brain metastatic cells. Conditions: due to upregulation of GSH; cited from earlier work.
A further data set relates to Nrf2. The experiment in a line: Nrf2 activity assay (ARE luciferase reporter). It is filed as cell-based. Conditions: Cu 10 μM, DSF 10-20 μM, DSF-Cu 150 nM. As for the experimental part: Cells in opaque 96-well plates (Greiner Bio-One) were transfected with pGL4.37 (ARE firefly luciferase reporter, Promega) and pGL4.75 (Renilla luciferase control, Promega) plasmids using a 3:1 ratio of […] (Roche Applied Science, Indianapolis, Ind.) to DNA. The next day, cells were treated with as indicated. After 24 h, the Dual-Glo Luciferase Assay System (Promega) was used and luminescence read on a Veritas microplate luminometer (Turner BioSystems). Firefly luminescence was normalized to Renilla luminescence for each sample, and this value normalized to untreated.

Data set [4] concerns IBC cells (SUM149, rSUM149). Kind of data set: Cell-associated Cu in cell lysates by ICP-HRMS. Type of data set: cell-based. Conditions: 10 μM Cu, 24 h. Here is the method:
Cell lysates were prepared as above. For tumors, a portion of each tumor was placed into tissue lysis buffer (GoldBio Technology) and homogenized using the Bullet Blender Storm and lysis beads (MidSci). Lysates were analyzed for Cu content using a Thermo Scientific Element 2 inductively coupled plasma high-resolution mass spectrometer (ICP-HRMS) at the W. M. Keck Elemental Geochemistry Laboratory (University of Michigan, Ann Arbor, Mich.), and Cu content of lysis buffer blank was subtracted from each sample. Values were normalized to protein for reporting as ng Cu/mg protein.

The next data set deals with ALDH. The experiment in a line: ALDEFLUOR assay. It is filed as cell-based, human. Conditions: SUM149 cells, 24 h, sub-lethal dose. As for the experimental part: ALDH enzymatic activity was assessed using the ALDEFLUOR kit (Stem Cell Technologies) according to the manufacturer's instructions. Briefly, cells were incubated with ALDH substrate for 35 minutes at 37° C. The specific ALDH inhibitor diethylaminobenzaldehyde (DEAB) was used as negative control. Sorting gates were established using 7-AAD stained cells for viability and ALDEFLUOR-stained cells treated with DEAB as negative controls. Dot plots from a representative experiment are shown with mean±SEM from four experiments.

For the next data set, the system named is tumor xenografts. The experiment in a line: Tumor radiation control curve with MnSOD mimic. It is filed as in vivo.

Data on eight compounds can be found in US10195164B2, “Use of disulfiram for inflammatory breast cancer therapy” (Duke University, priority 2015, dated 2019).

Some results are limits rather than exact numbers.

Take `Cc1cc(-c2ccc(S(=O)(=O)O)cc2)c2ccc3c(-c4ccc(S(=O)(=O)O)cc4)cc(C)nc3c2n1` [BCS, bathocuproine disulphonate]: the “effect of Cu chelator on DSF-Cu-induced cell death” value in the data set on SUM149 cells and with rSUM149 cells was “almost completely blocked DSF-Cu-induced cell death” in each case.
Consider `CCN(CC)C(=S)SSC(=S)N(CC)CC` [DSF, Disulfiram], for which the plasma concentration in data set [1] was < 2000 nM. For the same compound, the half-inhibitory concentration (IC50) is ~17 µM in the data set with SUM149 cells (Homo sapiens, SUM149, DSF alone, 24 h, trypan blue exclusion) and 25 to 30 µM in the data set on rSUM149 cells (Homo sapiens, DSF alone, 24 h, trypan blue exclusion). Also, in the data set on IBC cells (DSF alone), the “concentrations at which DSF induced toxicity” value was “greater than 10 μM”.
In the case of `[SH-].[SH-].[S]=[Mo]=[S]` [TM, tetrathiomolybdate], the “effect of Cu chelator on DSF-Cu-induced cell death” value in the data set with SUM149 cells and in the data set on rSUM149 cells was “almost completely blocked DSF-Cu-induced cell death” each time.
In the case of zinc pyrithione [ZPT], the “growth of MPY17 cells” value in [2] is recorded as “grew similarly to the SEY6210 cells”.
With `CC(C)C[C@H](NC(=O)[C@H](Cc1ccccc1)NC(=O)c1cnccn1)B(O)O` [bortezomib], in data set [3], the “fold less sensitive to bortezomib” value is listed as “drugs; brain metastatic cells 60-fold less”.
For `O=S(=O)([O-])[O-].[Cu+2]` [Cu, CuSO4], in the data set with Nrf2, the Nrf2 transcriptional activity result is “induced Nrf2 transcriptional activity”. The Cu accumulation result in [4] is “slight increase”. The cytotoxicity entry with IBC cells (Cu alone (10 μM), 24 h) is given as “not cytotoxic”. The “ALDH+ population” value in the data set with ALDH was “neither DSF nor Cu alone affected”.
Consider MnBuOE, for which the dose modifying factor in the data set on tumor xenografts (radiosensitization of xenograft tumors) was 1.3. In the data set with tumor xenografts (total RT applied in 5 fractions, treatment pre- and post-RT, saline controls 47Gy), the TCD50 dose worked out at 36.5 Gy.
Regarding MnTnHexyl-2-PyP^5+, the “effect of SOD mimetic on DSF-Cu cell death” value with rSUM149 cells (100-200 μM SOD mimetic) was “blocked cell death caused by DSF-Cu treatment”.

The IC50 is the midpoint of a concentration-inhibition curve. A high value points to lower potency.
